Assay results published in PMC6582486, “Stapled EGFR peptide reduces inflammatory breast cancer and inhibits additional HER-driven models of cancer” (Journal of Translational Medicine, 2019).
Where a SMILES comes first, the peptide text is derived from it. Bridges are numbered along the chain shown (N, C = ends). [ ]: non-standard residue; d: D form. R8 = C=CCCCCCC[C@@](C)(N)C(=O)O; S5 = C=CCCC[C@](C)(N)C(=O)O

Key:
[1] = 28-day toxicity study: injection site reactogenicity; format: in vivo, CD-1 mice; conditions: male; for Injection site reactogenicity: Animals with Signs: 28-day study
Method: (§1) Toxicology was performed by IITRI. The study was conducted in compliance with the US Food and Drug Administration (FDA) good laboratory practice (GLP) Regulations (Code of Federal Regulations Title 21 Part 58) to evaluate the toxicokinetics, local tolerability, immunogenicity, and potential toxicity of SAH5-EJ1 following three times per week intravenous (IV) dosing for 28 days in mice. Male and female CD-1 IGS [Crl:CD1(ICR)] mice (135 per sex) were received from Wilmington, MA-based Charles River Laboratories, Inc.’s Kingston facility (Stone Ridge, NY).
Response measured at 6 and 24 hours post-injection.

[2] = 28-day toxicity study: treatment observation frequency; format: in vivo, CD-1 mice; conditions: for Treatment observation: Animals with Signs: 28 days
Method: as §1

CC[C@H](C)[C@H](NC(=O)[C@H](Cc1c[nH]cn1)NC(=O)[C@H](CCCNC(=N)N)NC(=O)[C@H](CCCNC(=N)N)NC(=O)[C@H](CCCNC(=N)N)NC(=O)[C@H](CCSC)NC(=O)[C@H](Cc1ccccc1)NC(=O)[C@H](C)NC(=O)[C@H](CCCNC(=N)N)NC(=O)[C@H](C)NC(=O)[C@H](CCC(N)=O)NC(=O)[C@H](CCCNC(=N)N)NC(=O)[C@H](C)NC(=O)[C@H](C)NC(=O)[C@H](C)NC(=O)[C@H](CCCNC(=N)N)NC(=O)[C@H](C)NC(=O)[C@@H](N)Cc1ccc(O)cc1)C(=O)N[C@H](C(=O)N[C@@H](CCCNC(=N)N)C(=O)N[C@@H](CCCCN)C(=O)N[C@@H](CCCNC(=N)N)C(=O)N[C@]1(C)CCCCCCC=CCCC[C@@](C)(C(=O)N[C@@H](CCCNC(=N)N)C(=O)N[C@@H](CCC(=O)O)C(N)=O)NC(=O)[C@H](CCC(N)=O)NC(=O)[C@H](CC(C)C)NC(=O)[C@H](CC(C)C)NC(=O)[C@H](CCCNC(=N)N)NC(=O)[C@H](CCCNC(=N)N)NC(=O)[C@H](CC(C)C)NC1=O)C(C)C [SAH5-EJ1] (H-YARAAARQARAFMRRRHIVRKR[R8]LRRLLQ[S5]RE-NH2; staple 23-30)
14: Edema: 1 - Minimal, slight swelling (animals) ([1]; 15 mg/kg, 15 examined) | Edema: 2 - Mild, defined swelling (animals) ([1]; 15 mg/kg, 15 examined)
6: Erythema and Eschar: 1 - Minimal (animals) ([1]; 10 mg/kg, 10 examined) | Erythema and Eschar: 4 - Severe, dark red, pronounced (animals) ([1]; 15 mg/kg, 15 examined)
10: Erythema and Eschar Formation (animals) ([1]; 10 mg/kg, 10 examined) | Erythema and Eschar: 0 - Normal (animals) ([1]; 10 mg/kg, 10 examined) | Injection site reactogenicity: Animals with Signs ([1]; 10 mg/kg, 10 examined) | Erythema and Eschar: 3 - Moderate, bright red, distinct (animals) ([1]; 15 mg/kg, 15 examined) | Treatment observation: Normal (animals) ([2]; female, 5 mg/kg, 10 examined) | Treatment observation: Normal (animals) ([2]; female, 10 mg/kg, 10 examined) | Treatment observation: Normal (animals) ([2]; male, 5 mg/kg, 10 examined) | Treatment observation: Normal (animals) ([2]; male, 10 mg/kg, 10 examined)
15: Edema (animals) ([1]; 15 mg/kg, 15 examined) | Edema: 0 - Normal, no swelling (animals) ([1]; 15 mg/kg, 15 examined) | Erythema and Eschar Formation (animals) ([1]; 15 mg/kg, 15 examined) | Erythema and Eschar: 0 - Normal (animals) ([1]; 15 mg/kg, 15 examined) | Erythema and Eschar: 2 - Mild, bright pink/pale, distinct (animals) ([1]; 15 mg/kg, 15 examined) | Injection site reactogenicity: Animals with Signs ([1]; 15 mg/kg, 15 examined) | Treatment observation: Normal (animals) ([2]; female, 15 mg/kg, 15 examined) | Treatment observation: Normal (animals) ([2]; male, 15 mg/kg, 15 examined)
2: Erythema and Eschar: 4 - Severe, dark red, pronounced (animals) ([1]; 10 mg/kg, 10 examined) | Edema: 4 - Severe, pronounced swelling, raised border (animals) ([1]; 15 mg/kg, 15 examined) | Treatment observation: General (animals) ([2]; female, 15 mg/kg, 15 examined) | Treatment observation: Hypoactive (animals) ([2]; female, 15 mg/kg, 15 examined) | Treatment observation: Animals with Signs ([2]; female, 15 mg/kg, 15 examined) | Treatment observation: General (animals) ([2]; male, 15 mg/kg, 15 examined) | Treatment observation: Rough Coat (animals) ([2]; male, 15 mg/kg, 15 examined) | Treatment observation: Animals with Signs ([2]; male, 15 mg/kg, 15 examined)
8: Erythema and Eschar: 2 - Mild, bright pink/pale, distinct (animals) ([1]; 10 mg/kg, 10 examined)
4: Erythema and Eschar: 3 - Moderate, bright red, distinct (animals) ([1]; 10 mg/kg, 10 examined)
1: Edema: 3 - Moderate, defined swelling, raised border (animals) ([1]; 10 mg/kg, 10 examined) | Edema: 4 - Severe, pronounced swelling, raised border (animals) ([1]; 10 mg/kg, 10 examined) | Treatment observation: Discolored Urine (animals) ([2]; female, 15 mg/kg, 15 examined) | Treatment observation: Hunched Posture (animals) ([2]; female, 15 mg/kg, 15 examined) | Treatment observation: Discolored Urine (animals) ([2]; male, 15 mg/kg, 15 examined)
7: Edema: 3 - Moderate, defined swelling, raised border (animals) ([1]; 15 mg/kg, 15 examined)
11: Erythema and Eschar: 1 - Minimal (animals) ([1]; 15 mg/kg, 15 examined)
0: Treatment observation: Discolored Urine (animals) ([2]; female, 5 mg/kg, 10 examined) | Treatment observation: General (animals) ([2]; female, 5 mg/kg, 10 examined) | Treatment observation: Hunched Posture (animals) ([2]; female, 5 mg/kg, 10 examined) | Treatment observation: Hypoactive (animals) ([2]; female, 5 mg/kg, 10 examined) | Treatment observation: Animals with Signs ([2]; female, 5 mg/kg, 10 examined) | Treatment observation: Discolored Urine (animals) ([2]; female, 10 mg/kg, 10 examined) | Treatment observation: General (animals) ([2]; female, 10 mg/kg, 10 examined) | Treatment observation: Hunched Posture (animals) ([2]; female, 10 mg/kg, 10 examined) | Treatment observation: Hypoactive (animals) ([2]; female, 10 mg/kg, 10 examined) | Treatment observation: Animals with Signs ([2]; female, 10 mg/kg, 10 examined) | Treatment observation: Discolored Urine (animals) ([2]; male, 5 mg/kg, 10 examined) | Treatment observation: General (animals) ([2]; male, 5 mg/kg, 10 examined) | Treatment observation: Rough Coat (animals) ([2]; male, 5 mg/kg, 10 examined) | Treatment observation: Animals with Signs ([2]; male, 5 mg/kg, 10 examined) | Treatment observation: Discolored Urine (animals) ([2]; male, 10 mg/kg, 10 examined) | Treatment observation: General (animals) ([2]; male, 10 mg/kg, 10 examined) | Treatment observation: Rough Coat (animals) ([2]; male, 10 mg/kg, 10 examined) | Treatment observation: Animals with Signs ([2]; male, 10 mg/kg, 10 examined)
